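Assay format: 96-well plates, 48-hour exposure. Here, GI50 denotes the concentration required for 50% inhibition of growth.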 Active and inactive are the calls of the source. No stated cut-off is given here; in the data, active = GI50 up to about 1.1 µM and inactive = higher.
What was measured:
Assay in all cases: inhibition of tumour cell growth, NCI panel, 48 h
[1] = test system: A498
[2] = test system: A549
[3] = test system: ACHN
[4] = test system: BT-549
[5] = test system: CAKI-1
[6] = test system: CCRF-CEM
[7] = test system: COLO 205
[8] = test system: DLD-1
[9] = test system: DMS-114
[10] = test system: DMS-273
[11] = test system: DU-145
[12] = test system: EKVX
[13] = test system: HCC 2998
[14] = test system: HCT-116
[15] = test system: HCT-15
[16] = test system: HL-60
[17] = test system: HOP-62
[18] = test system: HOP-92
[19] = test system: HT-29
[20] = test system: Hs-578T
[21] = test system: IGROV-1
[22] = test system: K562
[23] = test system: KM12
[24] = test system: LOX IMVI
[25] = test system: LXFL 529
[26] = test system: M14
[27] = test system: M19-MEL
[28] = test system: MCF7
[29] = test system: MDA-MB-231
[30] = test system: MDA-MB-435
[31] = test system: MDA-N
[32] = test system: MOLT-4
[33] = test system: Malme-3M
[34] = test system: NCI-H226
[35] = test system: NCI-H23
[36] = test system: NCI-H460
[37] = test system: NCI-H522
[38] = test system: NCI/ADR-RES
[39] = test system: OVCAR-3
[40] = test system: OVCAR-4
[41] = test system: OVCAR-5
[42] = test system: OVCAR-8
[43] = test system: PC-3
[44] = test system: RPMI-8226
[45] = test system: RXF 393
[46] = test system: SF-268
[47] = test system: SF-295
[48] = test system: SF-539
[49] = test system: SK-MEL-28
[50] = test system: SK-MEL-2
[51] = test system: SK-OV-3
[52] = test system: SN12C
[53] = test system: SNB-19
[54] = test system: SNB-75
[55] = test system: SNB-78
[56] = test system: SR
[57] = test system: SW-620
[58] = test system: T47D
[59] = test system: TK-10
[60] = test system: U-251
[61] = test system: UACC-257
[62] = test system: UACC-62
[63] = test system: UO-31
[64] = test system: XF498
[65] = test system: 786-0
[66] = test system: KM-20L2
[67] = test system: SK-MEL-5

CS(=O)(=O)C(C#N)c1nc2ccccc2nc1Cl (centres undefined)
GI50 [1]: > 28.1 µM (inactive) | GI50 [2]: > 100 µM (inactive) | GI50 [3]: > 100 µM (inactive) | GI50 [4]: > 100 µM (inactive) | GI50 [5]: > 66.5 µM (inactive) | GI50 [6]: > 94 µM (inactive) | GI50 [7]: > 100 µM (inactive) | GI50 [8]: 4.18 µM (inactive) | GI50 [9]: > 100 µM (inactive) | GI50 [10]: > 100 µM (inactive) | GI50 [11]: > 100 µM (inactive) | GI50 [12]: > 100 µM (inactive) | GI50 [13]: > 32.2 µM (inactive) | GI50 [14]: > 100 µM (inactive) | GI50 [15]: > 35.2 µM | GI50 [16]: > 100 µM (inactive) | GI50 [17]: > 100 µM (inactive) | GI50 [18]: > 100 µM (inactive) | GI50 [19]: > 100 µM (inactive) | GI50 [20]: 70.6 µM (inactive) | GI50 [21]: > 66.5 µM (inactive) | GI50 [22]: > 100 µM (inactive) | GI50 [23]: > 34.4 µM (inactive) | GI50 [24]: > 100 µM (inactive) | GI50 [25]: > 100 µM (inactive) | GI50 [26]: > 100 µM (inactive) | GI50 [27]: 5.68 µM (inactive) | GI50 [28]: > 100 µM (inactive) | GI50 [29]: > 100 µM (inactive) | GI50 [30]: > 100 µM (inactive) | GI50 [31]: > 100 µM (inactive) | GI50 [32]: > 100 µM (inactive) | GI50 [33]: > 100 µM (inactive) | GI50 [34]: > 100 µM (inactive) | GI50 [35]: > 100 µM (inactive) | GI50 [36]: > 30.5 µM (inactive) | GI50 [37]: > 53.7 µM (inactive) | GI50 [38]: > 36.5 µM (inactive) | GI50 [39]: > 72.1 µM (inactive) | GI50 [40]: > 73.5 µM (inactive) | GI50 [41]: > 39.9 µM (inactive) | GI50 [42]: > 19.5 µM (inactive) | GI50 [43]: > 100 µM (inactive) | GI50 [44]: > 100 µM (inactive) | GI50 [45]: > 100 µM (inactive) | GI50 [46]: > 74 µM (inactive) | GI50 [47]: > 100 µM (inactive) | GI50 [48]: > 28.5 µM (inactive) | GI50 [49]: > 100 µM (inactive) | GI50 [50]: > 22.4 µM (inactive) | GI50 [51]: > 100 µM (inactive) | GI50 [52]: > 100 µM (inactive) | GI50 [53]: > 100 µM (inactive) | GI50 [54]: > 100 µM (inactive) | GI50 [55]: > 100 µM (inactive) | GI50 [56]: > 100 µM (inactive) | GI50 [57]: > 100 µM (inactive) | GI50 [58]: > 100 µM (inactive) | GI50 [59]: > 32.6 µM (inactive) | GI50 [60]: > 100 µM (inactive) | GI50 [61]: > 73.3 µM (inactive) | GI50 [62]: > 100 µM (inactive) | GI50 [63]: > 100 µM (inactive) | GI50 [64]: > 100 µM (inactive)

NNC(=O)N/N=C1\CNC(=O)C(=O)C1c1nc2ccccc2s1 (centres undefined)
GI50 [65]: > 100 µM (inactive) | GI50 [1]: > 100 µM (inactive) | GI50 [2]: > 100 µM (inactive) | GI50 [3]: > 100 µM (inactive) | GI50 [5]: > 100 µM (inactive) | GI50 [6]: > 100 µM (inactive) | GI50 [7]: > 100 µM (inactive) | GI50 [8]: > 100 µM (inactive) | GI50 [9]: > 100 µM (inactive) | GI50 [10]: > 100 µM (inactive) | GI50 [12]: > 100 µM (inactive) | GI50 [13]: > 100 µM (inactive) | GI50 [14]: > 100 µM (inactive) | GI50 [15]: > 100 µM | GI50 [16]: > 100 µM (inactive) | GI50 [17]: > 100 µM (inactive) | GI50 [18]: > 100 µM (inactive) | GI50 [19]: > 100 µM (inactive) | GI50 [21]: > 100 µM (inactive) | GI50 [22]: > 100 µM (inactive) | GI50 [66]: > 100 µM (inactive) | GI50 [23]: > 100 µM (inactive) | GI50 [24]: > 100 µM (inactive) | GI50 [25]: > 100 µM (inactive) | GI50 [26]: > 100 µM (inactive) | GI50 [27]: > 100 µM (inactive) | GI50 [33]: > 100 µM (inactive) | GI50 [34]: > 100 µM (inactive) | GI50 [35]: > 100 µM (inactive) | GI50 [36]: > 100 µM (inactive) | GI50 [37]: > 100 µM (inactive) | GI50 [39]: > 100 µM (inactive) | GI50 [40]: > 100 µM (inactive) | GI50 [41]: > 100 µM (inactive) | GI50 [42]: > 100 µM (inactive) | GI50 [44]: > 100 µM (inactive) | GI50 [45]: > 100 µM (inactive) | GI50 [46]: > 100 µM (inactive) | GI50 [47]: > 100 µM (inactive) | GI50 [48]: > 100 µM (inactive) | GI50 [49]: > 100 µM (inactive) | GI50 [50]: > 100 µM (inactive) | GI50 [67]: > 100 µM (inactive) | GI50 [51]: > 100 µM (inactive) | GI50 [52]: > 100 µM (inactive) | GI50 [53]: > 100 µM (inactive) | GI50 [54]: > 100 µM (inactive) | GI50 [55]: > 100 µM (inactive) | GI50 [57]: > 100 µM (inactive) | GI50 [59]: > 100 µM (inactive) | GI50 [60]: > 100 µM (inactive) | GI50 [61]: > 100 µM (inactive) | GI50 [62]: > 100 µM (inactive) | GI50 [63]: > 100 µM (inactive) | GI50 [64]: > 100 µM (inactive)
